We go through 2 molecules from patent US9050301B2, “Pharmaceutical composition for treatment of corneal endothelial wounds containing angiogenin” (Chung-Ang University Industry-Academy Cooperation Foundation, priority 2013, dated 2015).

In experiment [1] the test system is rabbit corneal endothelium. Put plainly: Central corneal thickness by ultrasonic pachymeter after trans-corneal freezing damage. The class given is in vivo. As to the method: (§1) 30 eyeballs of 15 healthy white New Zealand rabbits weighing about 2.0 kg to about 3.0 kg without external opacification were anesthetized by intramuscular injection with 12.5 mg/kg of tiletamine/zolazepam (Zoletil®, VirbacLab, France) and 12.5 mg/kg of zylazine (Rompun®, BayerKorea, Korea). Afterwards, 0.5% povidone-iodine was used for disinfection of the whole range of experimental sight. Referring to FIG. 1, an 8 mm-diameter stainless steel rod as a probe was immersed in liquid nitrogen for 3 minutes, removed therefrom once the temperature of the liquid nitrogen reached −196° C., and brought into contact to the central cornea for 15 seconds. Then, each of the eyeballs was washed with 10 cc of 0.9% saline solution. In order to prevent the occurrence of corneal infection, the rabbit corneas were given instillation of Levofloxacin (Cravit®, Santen, Japan) three times a day for 3 days after the damage was induced.
(§2) 3 groups consisting of 10 eyeballs given instillation of angiogenin (200 μg/mL), 7 eyeballs given Y-27632 (10 mM) inhibitor of Rho-associated coiled-coil kinase (ROCK) pathway, and 7 eyeballs as a control group given phosphate-buffered solution (PBS) were each subjected to 50 μl of instillation at a time, and more particularly, 6 times a day for the first 2 days, and then, 4 times a day for the following 2 days, starting immediately after inducing freeze-damages to the trans-corneal endothelium. That is, the instillation was performed 20 times in total for 4 days.
After inducing freeze-damages to trans-corneal of all the eyeballs from the group given instillation of angiogenin, the group given instillation of Y-27632, and the control group, the central corneal thickness was measured 3 times by using an ultrasonic corneal pachymeter (POCKET-II, Quantel medical, Clemont-Ferrand, France) at every 48 hours (2nd day), 72 hours (3rd day), 144 hours (6th day), and 192 hours (8th day), thereby calculating a mean value thereof. Here, the maximum measurable value of the ultrasonic corneal pachymeter was referred to 1,000 μm so the maximum corneal thickness was also considered as 1,000 μm.

Experiment [2] concerns rabbit corneal endothelial cells. Put plainly: In vitro scratch wound healing of cultured rabbit corneal endothelial cells. The format is cell-based. Conditions: for Wound healing index: angiogenin 2 μg/ml, mean ± SE. How it is done:
A corneal endothelial tissue segment obtained from remaining corneal portions other than the central 8 mm corneal portion in cadaveric cornea donated for transplantation and a corneal endothelial tissue segment of a normal rabbit were cultured. Then, each of the corneal tissues was divided into 6 pieces and washed by shaking 6 times in a petri dish to which 7 ml of 5% penicillin/streptomycin (P/S) was added. Then, the washed tissues were each transferred to a 6-well dish such that the endothelial layer was facing down, and the tissues were semi-dried until the dishes were slightly drained. Next, the corneal endothelial cells of the rabbit cornea were cultured in a culture medium (EGM™-2BulletKit™, Lonza, Allendale, USA) containing human epidermal growth factor (hEGF), hydrocortisone, 5% fetal bovine serum (FBS), human […] (hFGF), insulin-like growth factor (IGF), ascorbic acid, gentamicin, and amphotericin-B (EGM™-2BulletKit™, Lonza, Allendale, USA), and the corneal endothelial cells of the human cornea were cultured in a culture medium (Opti-MEM®, Gibco®, New York, USA) supplemented with 8% FBS, calcium (CaCl2), chondroitinsulfate, ascorbic acid, multi-vitamin solution, gentamicin, anti-Pseudomonas aeruginosa antibiotic, pituitary extract, epidermal growth factor (EGF), and nerve growth factor (NGF), for about 5 to 7 days.
Experiments have been carried to identify angiogenin effects on migration and proliferation of the corneal endothelial cells. When the cultured rabbit corneal endothelial cells had about 80-90% confluency in three 6-well dishes, the central part of each well was scratched by a tip of a 200 μl pipette to make wounds. Then, each of the three 6-well dishes was replaced by a culture medium containing 1) 5% FBS (in the control group), 2) Y-27632 (10 μM), and 3) angiogenin (2 μg/ml). At every 0 hour, 12 hours, 24 hours, and 48 hours, digital images of the remaining wounded areas were obtained at 40× magnification of the optical microscope, and measured in pixels by using the Image J software. In addition, each of the three 6-well dishes containing the cultured corneal endothelial cells in the human was scratched in the same manner as described above to make wounds, and then, replaced by a culture medium containing 1) 5% FBS (in the control group), 2) Y-27632 (10 μM), and 3) angiogenin (5 μg/ml). At every 6 hours and 24 hours, the wounded areas were measured by using the Image J software. The ratio of initial wounded area versus recovered area was defined as wound healing index, which is calculated as shown below. Here, the initial wounded area was corrected to be equal before the calculation. Wound healing index(%)=(Initial wounded area−Remaining wounded area)/Initial wounded area

Experiment [3] has as its system rabbit corneal endothelium. Put plainly: Corneal transparency grade by slit-lamp after trans-corneal freezing damage. The format is in vivo. The settings on record: mean ± SE. As to the method: as §1, §2
Then, the groups were subjected to the evaluation of corneal opacity and corneal edema by using a digital camera (VLUUNV100HD, Samsung, Suwon, Korea) to obtain images taken in a diagonal direction.
Experiments have been carried out to identify effects of angiogenin-induced PI3k-Akt signaling pathway in terms of recovering the corneal transparency after inducing damages to the corneal endothelium. After inducing freeze-damages to the corneal endothelium, 4 eyeballs out of 30 rabbit eyeballs in total were subjected to 50 μl of each of 200 μg/mL of angiogenin and 200 μM of PI3k-Akt pathway inhibitor, LY294002 instillation at a time every 3 minutes, and more particularly, 6 times a day for the first 2 days, and then, 4 times a day for the following one day. That is, the instillation was performed 16 times in total for 3 days.

The mark [4] stands for this setting: 48 h after freeze damage, maximum measurable value 1,000 μm.
Setting [5] is: 72 h after freeze damage, maximum measurable value 1,000 μm.
Where [6] appears, read: 144 h after freeze damage, angiogenin 200 μg/mL, Y-27632 10 mM instillation, mean ± SE.
[7] abbreviates: 192 h after freeze damage, angiogenin 200 μg/mL, Y-27632 10 mM instillation, mean ± SE.
Setting [8] is: 48 h after freeze damage, instillation 50 μl (angiogenin 200 μg/mL, Y-27632 10 mM), grade 0 transparent to +4.0 turbid (Table 1).
[9] abbreviates: 72 h after freeze damage, instillation 50 μl (angiogenin 200 μg/mL, Y-27632 10 mM, LY294002 200 μM), grade 0 to +4.0 (Table 1).
Setting [10] is: 144 h after freeze damage, instillation 50 μl (angiogenin 200 μg/mL, Y-27632 10 mM), grade 0 to +4.0 (Table 1).
Setting [11] is: 192 h after freeze damage, instillation 50 μl (angiogenin 200 μg/mL, Y-27632 10 mM), grade 0 to +4.0 (Table 1).

As for “Angiogenin: 14.4-kDa single chain protein of 123 amino acids, secreted protein capable of inducing angiogenesis”, the Central corneal thickness in experiment [1] (0 h (baseline), mean ± SE) is listed as 350.4 ± 6.2 μm; in experiment [1] (setting [4]), >1,000 μm; in experiment [1] (setting [5]), >1,000 μm; in experiment [1] (setting [6]), 503.0 ± 21.1 μm; in experiment [1] (144 h after freeze damage, angiogenin 200 μg/mL, Y-27632 10 mM instillation, mean ± SE, listed as angiogenin), “about 503.0±21.07 μm”; in experiment [1] (setting [7]), 390.3 ± 10.5 μm. In addition, the Central corneal thickness result in experiment [1] (192 h after freeze damage, angiogenin 200 μg/mL, Y-27632 10 mM instillation, mean ± SE, listed as angiogenin) is reported as “about 390.3±10.55 μm”. Further, the Wound healing index is 28.7±2.9% in experiment [2] (12 hours), 66.7±4.3% in experiment [2] (24 hours) and 78.7±2.9% in experiment [2] (48 hours). In addition, the “Grade of corneal transparency (by using slit-lamp biomicroscope)” value in experiment [3] (setting [8]) came to 4.00 ± 0; in experiment [3] (setting [9]), 2.65 ± 0.37; in experiment [3] (setting [10]) it was 1.29 ± 0.26; in experiment [3] (setting [11]) it was 1.29 ± 0.26.
`C[C@@H](N)[C@H]1CC[C@H](C(=O)Nc2ccncc2)CC1` [Y-27632, reference compound]: the Central corneal thickness in experiment [1] (0 h (baseline), mean ± SE) is recorded as 361.7 ± 3.4 μm; in experiment [1] (setting [4]), >1,000 μm; in experiment [1] (setting [5]), >1,000 μm; in experiment [1] (setting [6]) it was 571.6 ± 43.0 μm; in experiment [1] (setting [7]) it was 432.5 ± 332.2 μm. Besides, the “Wound healing index compared with the control group” value in experiment [2] (Y-27632 10 μM, 12, 24, 48 hours) is listed as “did not show significant difference”. Also, the “Grade of corneal transparency (by using slit-lamp biomicroscope)” value in experiment [3] (setting [8]) was 4.00 ± 0; in experiment [3] (setting [9]), 3.00 ± 0.41; in experiment [3] (setting [10]), 1.38 ± 0.38; in experiment [3] (setting [11]) it was 1.38 ± 0.38.
